Data as given in US20080194585A1, “Fungicidal Pyrazine Derivatives” (priority 2005, published 2008).
Read-outs that look alike come from different tables or passages of the source.

Columns and labels:
[1] = system: Erysiphe graminis f. sp. tritici; test: Test L: wheat powdery mildew, preventive spray on wheat seedlings; conditions: for pest or weed control at 40 ppm / pest or weed control at 200 ppm: Blumeria graminis, in Triticum aestivum, 168 h; for pest or weed control at 200 ppm: read-out: Test L disease control rating, 200 ppm; for Test L disease control rating: 200 ppm
[2] = system: Puccinia recondita f. sp. tritici; test: Test K: wheat leaf rust, preventive spray on wheat seedlings; conditions: for pest or weed control at 40 ppm / pest or weed control at 200 ppm: Puccinia recondita, in Triticum aestivum, 192 h, read-out: Test K disease control rating; for Test K disease control rating: 200 ppm
[3] = system: Pythium aphanidermatum; test: Test A: bluegrass pythium blight, preventive spray on bluegrass seedlings; conditions: for pest or weed control at 40 ppm / pest or weed control at 200 ppm: Pythium aphanidermatum, 120 h, read-out: Test A disease control rating; for Test A disease control rating: 200 ppm
[4] = system: Colletotrichum orbiculare; test: Test B: cucumber Colletotrichum anthracnose, preventive spray on cucumber seedlings; conditions: for pest or weed control at 40 ppm / pest or weed control at 200 ppm: Colletotrichum orbiculare, in Cucumis sativus, 144 h; for pest or weed control at 200 ppm: read-out: Test B disease control rating, 200 ppm; for Test B disease control rating: 200 ppm
[5] = system: Botrytis cinerea; test: Test E: tomato botrytis, preventive spray on tomato seedlings; conditions: for pest or weed control at 40 ppm / pest or weed control at 200 ppm: Botrytis cinerea, in Solanum lycopersicum, topical, 72 h, read-out: Test E disease control rating; for Test E disease control rating: 200 ppm
[6] = system: Plasmopara viticola; test: Test D: grape downy mildew, spray after inoculation of grape seedlings; type: in vivo; conditions: for pest or weed control at 40 ppm / pest or weed control at 200 ppm: Plasmopara viticola, 168 h, read-out: Test D disease control rating; for pest or weed control at 200 ppm / Test D disease control rating: 200 ppm
Description: Upon removal, disease ratings were made. […] A dash (-) indicates no test results.

[7] = system: Rhizoctonia oryzae; test: Test G: turf brown patch, preventive spray on creeping bent grass seedlings; conditions: for pest or weed control at 40 ppm / pest or weed control at 200 ppm: Waitea circinata, in Agrostis stolonifera, topical, 144 h; for pest or weed control at 200 ppm: read-out: Test G disease control rating, 200 ppm; for Test G disease control rating: 200 ppm
Description: (the causal agent of turf brown patch) and incubated in a saturated atmosphere at 27° C. for 24 h, and then moved to a growth chamber at 27° C. for 5 days, after which disease ratings were made.

[8] = system: Septoria nodorum; test: Test H: wheat glum blotch, preventive spray on wheat seedlings; conditions: for pest or weed control at 40 ppm / pest or weed control at 200 ppm: Parastagonospora nodorum, in Triticum aestivum, topical, 168 h; for pest or weed control at 200 ppm: read-out: Test H disease control rating, 200 ppm; for Test H disease control rating: 200 ppm
Description: (the causal agent of wheat glum blotch) and incubated in a saturated atmosphere at 20° C. for 48 h, and then moved to a growth chamber at 22° C. for 5 days, after which disease ratings were made.

[9] = system: Septoria tritici; test: Test J: wheat leaf blotch, preventive spray on wheat seedlings; type: in vivo
Description: A dash (-) indicates no test results.

[10] = system: fusarium graminearium; test: Test I: wheat head scab, preventive spray on wheat seedlings; conditions: for pest or weed control at 40 ppm / pest or weed control at 200 ppm: Fusarium, in Triticum aestivum, topical, 192 h; for pest or weed control at 200 ppm: read-out: Test I disease control rating, 200 ppm; for Test I disease control rating: 200 ppm
Description: (the causal agent of wheat head scab) and incubated in a saturated atmosphere at 20° C. for 72 h, and then moved to a growth chamber at 22° C. for 5 days, after which disease ratings were made.

[11] = system: Phytophthora infestans; test: whole plant or invertebrate; type: in vivo; conditions: for pest or weed control at 40 ppm / pest or weed control at 200 ppm: Phytophthora infestans, in Solanum lycopersicum, topical, 144 h, read-out: Test F disease control rating; for Test F disease control rating: 200 ppm
[12] = read-out: Test L disease control rating, 40 ppm (*)
[13] = read-out: Test B disease control rating, 40 ppm (*)
[14] = read-out: Test G disease control rating, 40 ppm (*)
[15] = read-out: Test H disease control rating, 40 ppm (*)
[16] = Zymoseptoria tritici, 528 h, 40 ppm (*), read-out: Test J disease control rating
[17] = read-out: Test I disease control rating, 40 ppm (*)
[18] = 100 = 100% disease control, 0 = no control
[19] = Zymoseptoria tritici, 528 h, 40 ppm (marked *), 100 = 100% disease control, 0 = no control, read-out: Test J disease control rating
[20] = 100 = 100% disease control, 0 = no control relative to controls

SMILES | Test L disease control rating [1] | Test K disease control rating [2] | Test A disease control rating [3] | Test B disease control rating [4] | Test E disease control rating [5] | Test D disease control rating [6] | Test G disease control rating [7] | Test H disease control rating [8] | Test J disease control rating ([9]; 200 ppm) | Test I disease control rating [10] | Test F disease control rating [11] | further results
O=c1c(-n2cccn2)nc(Cl)c(-c2c(F)cccc2F)n1-c1ccccc1 [Compound 161, 5-Chloro-6-(2,6-difluorophenyl)-1-phenyl-3-(1H-pyrazol-1-yl)-2(1H)-pyrazinone] |  |  |  |  |  |  |  |  |  |  |  | pest or weed control at 40 ppm [1, 12]: 90%; pest or weed control at 40 ppm [2]: 100%; pest or weed control at 40 ppm [3]: 0%; pest or weed control at 40 ppm [4, 13]: 77%; pest or weed control at 40 ppm [5]: 100%; pest or weed control at 40 ppm ([6]; 40 ppm (*)): 0%; pest or weed control at 40 ppm [7, 14]: 68%; pest or weed control at 40 ppm [8, 15]: 100%; pest or weed control at 40 ppm [9, 16]: 97%; pest or weed control at 40 ppm [10, 17]: 69%; pest or weed control at 40 ppm [11]: 0%
CCC(C)Cn1c(-c2ccc(F)cc2Cl)c(Cl)nc(-n2ccc(C)n2)c1=O (stereo not shown) [Compound 170, 5-Chloro-6-(2-chloro-4-fluorophenyl)-1-(2-methylbutyl)-3-(3-methyl-1H-pyrazol-1-yl)-2(1H)-pyrazinone] |  |  |  |  |  |  |  |  |  |  |  | pest or weed control at 40 ppm [1, 12]: 99%; pest or weed control at 40 ppm [2]: 100%; pest or weed control at 40 ppm [3]: 0%; pest or weed control at 40 ppm [4, 13]: 100%; pest or weed control at 40 ppm [5]: 100%; pest or weed control at 40 ppm ([6]; 40 ppm (*)): 0%; pest or weed control at 40 ppm [7, 14]: 26%; pest or weed control at 40 ppm [8, 15]: 100%; pest or weed control at 40 ppm [9, 16]: 100%; pest or weed control at 40 ppm [10, 17]: 0%; pest or weed control at 40 ppm [11]: 0%
CCC(C)Cn1c(-c2c(F)cccc2F)c(Cl)nc(C(N)=O)c1=O (stereo not shown) [Compound 298, 6-Chloro-5-(2,6-difluorophenyl)-3,4-dihydro-4-(2-methylbutyl)-3-oxopyrazinecarboxamide] |  |  |  |  |  |  |  |  |  |  |  | pest or weed control at 200 ppm [1, 18]: 89%; pest or weed control at 200 ppm [2]: 100%; pest or weed control at 200 ppm [3]: 88%; pest or weed control at 200 ppm [4, 18]: 66%; pest or weed control at 200 ppm [5]: 99%; pest or weed control at 200 ppm [6, 18]: 85%; pest or weed control at 200 ppm [7, 18]: 78%; pest or weed control at 200 ppm [8, 18]: 99%; pest or weed control at 200 ppm ([9]; Zymoseptoria tritici, 528 h, 200 ppm, 100 = 100% disease control, 0 = no control, read-out: Test J disease control rating): 100%; pest or weed control at 200 ppm [10, 18]: 96%; pest or weed control at 200 ppm [11]: 100%
O=c1c(-n2cccn2)nc(Cl)c(-c2c(F)cc(F)cc2F)n1-c1cccc(F)c1 [Compound 324, 5-Chloro-1-(3-fluorophenyl)-3-(1H-pyrazol-1-yl)-6-(2,4,6-trifluorophenyl)-2(1H)-pyrazinone] |  |  |  |  |  |  |  |  |  |  |  | pest or weed control at 40 ppm ([1]; read-out: Test L disease control rating, 40 ppm (marked *), 100 = 100% disease control, 0 = no control): 100%; pest or weed control at 40 ppm [2]: 100%; pest or weed control at 40 ppm [3]: 0%; pest or weed control at 40 ppm ([4]; read-out: Test B disease control rating, 40 ppm (marked *), 100 = 100% disease control, 0 = no control): 99%; pest or weed control at 40 ppm [5]: 99%; pest or weed control at 40 ppm ([6]; 40 ppm (marked *), 100 = 100% disease control, 0 = no control): 0%; pest or weed control at 40 ppm ([7]; read-out: Test G disease control rating, 40 ppm (marked *), 100 = 100% disease control, 0 = no control): 97%; pest or weed control at 40 ppm ([8]; read-out: Test H disease control rating, 40 ppm (marked *), 100 = 100% disease control, 0 = no control): 100%; pest or weed control at 40 ppm [9, 19]: 100%; pest or weed control at 40 ppm ([10]; read-out: Test I disease control rating, 40 ppm (marked *), 100 = 100% disease control, 0 = no control): 49%; pest or weed control at 40 ppm [11]: 0%
CCC(C)c1c(Cl)nc(-n2cccn2)c(=O)n1CC(C)C (stereo not shown) [Compound 424, 5-Chloro-6-(1-methylpropyl)-1-(2-methylpropyl)-3-(1H-pyrazol-1-yl)-2(1H)-pyrazinone] |  |  |  |  |  |  |  |  |  |  |  | pest or weed control at 200 ppm [1, 20]: 100%; pest or weed control at 200 ppm [2]: 100%; pest or weed control at 200 ppm [3]: 0%; pest or weed control at 200 ppm [4, 20]: 0%; pest or weed control at 200 ppm [5]: 96%; pest or weed control at 200 ppm [6, 20]: 0%; pest or weed control at 200 ppm [7, 20]: 99%; pest or weed control at 200 ppm [8, 20]: 0%; pest or weed control at 40 ppm [9, 19]: 37%; pest or weed control at 200 ppm [10, 20]: 0%; pest or weed control at 200 ppm [11]: 0%
O=c1c(-n2cncn2)nc(Cl)c(-c2c(F)cccc2F)n1CC1CC1 [compound 17] | 99% | 100% | 0% | 0% | 100% | 54% | 99% | 100% | 87% | 94% | 0% | 
CC(C)Cn1c(-c2ccc(Cl)cc2)c(Cl)nc(-n2cccn2)c1=O [compound 22] | 0% | 79% | 0% | 0% | 100% | 0% | 0% | 0% | 98% | 0% | 0% | 
CCCC(C)n1c(-c2c(F)cccc2F)c(Cl)nc(-n2cccn2)c1=O (stereo not shown) [compound 25] | 100% | 100% | 0% | 100% | 99% | 0% | 100% | 100% | 100% | 0% | 0% | 
CC(C)n1c(-c2c(F)cccc2F)c(Cl)nc(-n2cccn2)c1=O [compound 26] | 100% | 100% | 0% | 99% | 100% | 16% | 92% | 100% | 96% | 0% | 0% | 
CCCn1c(-c2c(F)cccc2F)c(Cl)nc(-n2cccn2)c1=O [compound 27] | 100% | 100% | 0% | 99% | 100% | 47% | 67% | 100% | 100% | 0% | 0% | 
CCCCCn1c(-c2c(F)cccc2F)c(Cl)nc(-n2cccn2)c1=O [compound 28] | 97% | 97% | 0% | 98% | 92% | 0% | 31% | 99% | 100% | 0% | 0% | 
